ChEMBL document CHEMBL3885861, “Open TG-GATES”

Species: Rattus norvegicus
Experiment: Open TG-GATES - Regimen: Daily Repeat
Format: toxicity, organism-based, Sprague-Dawley
Parameters: regimen Daily Repeat, gender Male, age 6 weeks
Settings: in vivo, po, route gavage; for APTT / Bas / Eos / Fbg / Hb / Ht / Lym / MCH / MCHC / MCV / Mono / Neu / PT / Plat / RBC / Ret / WBC: tissue Blood; for LIVER: tissue Liver; for A/G / ALP / ALT / AST / BUN / CRE / Ca / Cl / DBIL / GLC / IP / K / LDH / Na / PL / RALB / TBIL / TC / TG / TP / gamma-GTP: tissue Plasma
[1] = 20 mg/kg, 72 h, dose level Middle, time 3 day
[2] = 20 mg/kg, […], dose level Middle, time 7 day
[3] = 20 mg/kg, […], dose level Middle, time 14 day
[4] = 20 mg/kg, […], dose level Middle, time 28 day
[5] = 60 mg/kg, 72 h, dose level High, time 3 day
[6] = 60 mg/kg, […], dose level High, time 7 day
[7] = 60 mg/kg, […], dose level High, time 14 day
[8] = 60 mg/kg, […], dose level High, time 28 day

**Q.** Which results are given for O=[N+]([O-])c1ccc(O)c([N+](=O)[O-])c1 [2,4-DINITROPHENOL]?
**A.** TERMINAL_BW [1]: 243.1 g; APTT [1]: 15.4 s; Bas [1]: 0%; Eos [1]: 1.2%; Fbg [1]: 283.4 mg/dL; Hb [1]: 13.6 g/dL; Ht [1]: 40.4%; Lym [1]: 77%; MCH [1]: 22.4 pg; MCHC [1]: 33.7%; MCV [1]: 66.4 fL; Mono [1]: 5%; Neu [1]: 17%; PT [1]: 11.4 s; Plat [1]: 131.6 x10_4/uL; RBC [1]: 609.2 x10_4/ul; Ret [1]: 7.3%; WBC [1]: 124.2 x10_2/uL; LIVER [1]: 12.1 g; A/G [1]: 2.4; ALP [1]: 1368.6 IU/L; ALT [1]: 36.6 IU/L; AST [1]: 61.6 IU/L; BUN [1]: 15.2 mg/dL; CRE [1]: 0.4 mg/dL; Ca [1]: 11.4 mg/dL; Cl [1]: 104.2 meq/L; DBIL [1]: 0.01 mg/dL; GLC [1]: 182.6 mg/dL; IP [1]: 7.3 mg/dL; K [1]: 4.8 meq/L; LDH [1]: 128.4 IU/L; Na [1]: 138.2 meq/L; PL [1]: 165.4 mg/dL; RALB [1]: 3.9 g/dL; TBIL [1]: 0.022 mg/dL; TC [1]: 93 mg/dL; TG [1]: 134.6 mg/dL; TP [1]: 5.6 g/dL; gamma-GTP [1]: 0.2 IU/L; TERMINAL_BW [2]: 277.1 g; TERMINAL_BW [3]: 351 g; TERMINAL_BW [4]: 428.8 g; APTT [2]: 16.2 s; Bas [2]: 0%; Eos [2]: 0.8%; Fbg [2]: 259.6 mg/dL; Hb [2]: 13.7 g/dL; Ht [2]: 40.8%; Lym [2]: 71.4%; MCH [2]: 21.3 pg; MCHC [2]: 33.6%; MCV [2]: 63.3 fL; Mono [2]: 9%; Neu [2]: 19%; PT [2]: 11.8 s; Plat [2]: 128 x10_4/uL; RBC [2]: 644.2 x10_4/ul; Ret [2]: 5.5%; WBC [2]: 102 x10_2/uL; APTT [3]: 16.3 s; Bas [3]: 0%; Eos [3]: 0.6%; Fbg [3]: 267 mg/dL; Hb [3]: 13.9 g/dL; Ht [3]: 41.3%; Lym [3]: 77.6%; MCH [3]: 21 pg; MCHC [3]: 33.8%; MCV [3]: 62.2 fL; Mono [3]: 6%; Neu [3]: 15.8%; PT [3]: 11.8 s; Plat [3]: 128 x10_4/uL; RBC [3]: 663.8 x10_4/ul; Ret [3]: 4.4%; WBC [3]: 125.8 x10_2/uL; APTT [4]: 17.1 s; Bas [4]: 0%; Eos [4]: 1%; Fbg [4]: 281.8 mg/dL; Hb [4]: 14.9 g/dL; Ht [4]: 44%; Lym [4]: 82.4%; MCH [4]: 20 pg; MCHC [4]: 33.8%; MCV [4]: 59.1 fL; Mono [4]: 5%; Neu [4]: 11.6%; PT [4]: 12 s; Plat [4]: 122 x10_4/uL; RBC [4]: 744.2 x10_4/ul; Ret [4]: 2.6%; WBC [4]: 118.2 x10_2/uL; LIVER [2]: 13.6 g; LIVER [3]: 17.5 g; LIVER [4]: 19.1 g; A/G [2]: 2.3; ALP [2]: 1592.8 IU/L; ALT [2]: 33.4 IU/L; AST [2]: 63 IU/L; BUN [2]: 18.4 mg/dL; CRE [2]: 0.4 mg/dL; Ca [2]: 11.4 mg/dL; Cl [2]: 105.4 meq/L; DBIL [2]: 0.012 mg/dL; GLC [2]: 182 mg/dL; IP [2]: 7.2 mg/dL; K [2]: 4.8 meq/L; LDH [2]: 111.6 IU/L; Na [2]: 139.4 meq/L; PL [2]: 149.6 mg/dL; RALB [2]: 3.9 g/dL; TBIL [2]: 0.02 mg/dL; TC [2]: 77.4 mg/dL; TG [2]: 148.2 mg/dL; TP [2]: 5.6 g/dL; gamma-GTP [2]: 0.4 IU/L; A/G [3]: 2.1; ALP [3]: 983.2 IU/L; ALT [3]: 33.4 IU/L; AST [3]: 64.2 IU/L; BUN [3]: 19 mg/dL; CRE [3]: 0.3 mg/dL; Ca [3]: 11.8 mg/dL; Cl [3]: 104.4 meq/L; DBIL [3]: 0.014 mg/dL; GLC [3]: 180.4 mg/dL; IP [3]: 6.9 mg/dL; K [3]: 4.5 meq/L; LDH [3]: 99.8 IU/L; Na [3]: 137 meq/L; PL [3]: 151.2 mg/dL; RALB [3]: 4 g/dL; TBIL [3]: 0.022 mg/dL; TC [3]: 74.2 mg/dL; TG [3]: 190.4 mg/dL; TP [3]: 6 g/dL; gamma-GTP [3]: 0 IU/L; A/G [4]: 1.9; ALP [4]: 871.8 IU/L; ALT [4]: 31.8 IU/L; AST [4]: 63.4 IU/L; BUN [4]: 18.2 mg/dL; CRE [4]: 0.5 mg/dL; Ca [4]: 11.2 mg/dL; Cl [4]: 104.6 meq/L; DBIL [4]: 0.012 mg/dL; GLC [4]: 180.8 mg/dL; IP [4]: 6.6 mg/dL; K [4]: 4.3 meq/L; LDH [4]: 117.2 IU/L; Na [4]: 141 meq/L; PL [4]: 133.4 mg/dL; RALB [4]: 4.1 g/dL; TBIL [4]: 0.016 mg/dL; TC [4]: 67.6 mg/dL; TG [4]: 155.6 mg/dL; TP [4]: 6.2 g/dL; gamma-GTP [4]: 0.4 IU/L; TERMINAL_BW [5]: 245.9 g; APTT [5]: 15.9 s; Bas [5]: 0%; Eos [5]: 1%; Fbg [5]: 275.4 mg/dL; Hb [5]: 13.3 g/dL; Ht [5]: 39.2%; Lym [5]: 74%; MCH [5]: 22 pg; MCHC [5]: 33.9%; MCV [5]: 64.9 fL; Mono [5]: 7%; Neu [5]: 18.4%; PT [5]: 11.7 s; Plat [5]: 139 x10_4/uL; RBC [5]: 604.8 x10_4/ul; Ret [5]: 9.7%; WBC [5]: 124 x10_2/uL; LIVER [5]: 12.8 g; A/G [5]: 2.2; ALP [5]: 1454.2 IU/L; ALT [5]: 31.8 IU/L; AST [5]: 66.2 IU/L; BUN [5]: 17.8 mg/dL; CRE [5]: 0.4 mg/dL; Ca [5]: 11.4 mg/dL; Cl [5]: 104.6 meq/L; DBIL [5]: 0.014 mg/dL; GLC [5]: 169.2 mg/dL; IP [5]: 6.6 mg/dL; K [5]: 5 meq/L; LDH [5]: 98.2 IU/L; Na [5]: 137.8 meq/L; PL [5]: 155.2 mg/dL; RALB [5]: 3.8 g/dL; TBIL [5]: 0.02 mg/dL; TC [5]: 82 mg/dL; TG [5]: 125 mg/dL; TP [5]: 5.6 g/dL; gamma-GTP [5]: 0.2 IU/L; TERMINAL_BW [6]: 262.8 g; TERMINAL_BW [7]: 327.9 g; TERMINAL_BW [8]: 396.2 g; APTT [6]: 16.6 s; Bas [6]: 0%; Eos [6]: 1.4%; Fbg [6]: 263.8 mg/dL; Hb [6]: 14.2 g/dL; Ht [6]: 41.9%; Lym [6]: 78.4%; MCH [6]: 21.5 pg; MCHC [6]: 33.9%; MCV [6]: 63.4 fL; Mono [6]: 6.4%; Neu [6]: 14.6%; PT [6]: 11.9 s; Plat [6]: 128.6 x10_4/uL; RBC [6]: 662.2 x10_4/ul; Ret [6]: 6.1%; WBC [6]: 126.8 x10_2/uL; APTT [7]: 16.3 s; Bas [7]: 0%; Eos [7]: 0.8%; Fbg [7]: 263.8 mg/dL; Hb [7]: 14.3 g/dL; Ht [7]: 42.2%; Lym [7]: 74.8%; MCH [7]: 21.6 pg; MCHC [7]: 33.9%; MCV [7]: 63.5 fL; Mono [7]: 10.4%; Neu [7]: 14.2%; PT [7]: 12.2 s; Plat [7]: 124 x10_4/uL; RBC [7]: 665.2 x10_4/ul; Ret [7]: 4.2%; WBC [7]: 114.6 x10_2/uL; APTT [8]: 16.4 s; Bas [8]: 0%; Eos [8]: 1%; Fbg [8]: 294.4 mg/dL; Hb [8]: 15.6 g/dL; Ht [8]: 46.4%; Lym [8]: 73.4%; MCH [8]: 20.5 pg; MCHC [8]: 33.6%; MCV [8]: 60.9 fL; Mono [8]: 6.6%; Neu [8]: 18.8%; PT [8]: 12 s; Plat [8]: 105.6 x10_4/uL; RBC [8]: 763.2 x10_4/ul; Ret [8]: 2.9%; WBC [8]: 117.4 x10_2/uL; LIVER [6]: 13.7 g; LIVER [7]: 17.8 g; LIVER [8]: 21.6 g; A/G [6]: 2.3; ALP [6]: 1317.4 IU/L; ALT [6]: 39.4 IU/L; AST [6]: 72 IU/L; BUN [6]: 17 mg/dL; CRE [6]: 0.3 mg/dL; Ca [6]: 11.5 mg/dL; Cl [6]: 104.2 meq/L; DBIL [6]: 0.014 mg/dL; GLC [6]: 167.8 mg/dL; IP [6]: 7.2 mg/dL; K [6]: 4.8 meq/L; LDH [6]: 116.8 IU/L; Na [6]: 140.2 meq/L; PL [6]: 150.4 mg/dL; RALB [6]: 4 g/dL; TBIL [6]: 0.016 mg/dL; TC [6]: 77.6 mg/dL; TG [6]: 115 mg/dL; TP [6]: 5.7 g/dL; gamma-GTP [6]: 0.8 IU/L; A/G [7]: 2.2; ALP [7]: 1140.6 IU/L; ALT [7]: 38 IU/L; AST [7]: 79.2 IU/L; BUN [7]: 18.6 mg/dL; CRE [7]: 0.4 mg/dL; Ca [7]: 11.8 mg/dL; Cl [7]: 104.6 meq/L; DBIL [7]: 0.014 mg/dL; GLC [7]: 167.8 mg/dL; IP [7]: 6 mg/dL; K [7]: 4.1 meq/L; LDH [7]: 134.2 IU/L; Na [7]: 138 meq/L; PL [7]: 151.2 mg/dL; RALB [7]: 4.1 g/dL; TBIL [7]: 0.02 mg/dL; TC [7]: 67.4 mg/dL; TG [7]: 208.6 mg/dL; TP [7]: 6 g/dL; gamma-GTP [7]: 0 IU/L; A/G [8]: 1.9; ALP [8]: 925 IU/L; ALT [8]: 45.6 IU/L; AST [8]: 93.8 IU/L; BUN [8]: 20.8 mg/dL; CRE [8]: 0.5 mg/dL; Ca [8]: 11.4 mg/dL; Cl [8]: 105 meq/L; DBIL [8]: 0.018 mg/dL; GLC [8]: 167.6 mg/dL; IP [8]: 5 mg/dL; K [8]: 4.2 meq/L; LDH [8]: 160 IU/L; Na [8]: 140.2 meq/L; PL [8]: 144.4 mg/dL; RALB [8]: 4.1 g/dL; TBIL [8]: 0.026 mg/dL; TC [8]: 69 mg/dL; TG [8]: 177.8 mg/dL; TP [8]: 6.3 g/dL; gamma-GTP [8]: 0.6 IU/L
